Holding throughout (format): functional
The subject of test [1] is Escherichia coli. Nature of the test: Antibacterial activity against Escherichia coli KCTC 1682 assessed as reduction in bacterial growth incubated for 18 to 22 hrs by spectrophotometry based broth microdilution method. Particulars: time 18-22 hrs, read-out: MIC100.
The test system of test [2] is Pseudomonas aeruginosa. Nature of the test: Antibacterial activity against Pseudomonas aeruginosa KCTC 1637 assessed as reduction in bacterial growth incubated for 18 to 22 hrs by spectrophotometry based broth microdilution method. Particulars: time 18-22 hrs, read-out: MIC100.
The test system of test [3] is Bacillus subtilis. The experiment in a line: Antibacterial activity against Bacillus subtilis KCTC 3068 assessed as reduction in bacterial growth incubated for 18 to 22 hrs by spectrophotometry based broth microdilution method. The settings on record: time 18-22 hrs, read-out: MIC100. On the technique in general: Broth dilution looks for growth in wells or tubes with falling amounts of substance.

Test [4] has as its system Staphylococcus aureus. Nature of the test: Antibacterial activity against Staphylococcus aureus KCTC 1621 assessed as reduction in bacterial growth incubated for 18 to 22 hrs by spectrophotometry based broth microdilution method. The settings on record: time 18-22 hrs, read-out: MIC100.
Test [5] concerns Staphylococcus aureus. The experiment in a line: Antimicrobial activity against methicillin-resistant Staphylococcus aureus CCARM 3089 assessed as reduction in microbial growth incubated for 18 to 24 hrs by broth microdilution method. The settings on record: time 18-24 hrs.
For test [6], the system named is Staphylococcus aureus. The experiment in a line: Antimicrobial activity against methicillin-resistant Staphylococcus aureus CCARM 3090 assessed as reduction in microbial growth incubated for 18 to 24 hrs by broth microdilution method. The settings on record: time 18-24 hrs.
Test [7] relates to Staphylococcus aureus. Nature of the test: Antimicrobial activity against methicillin-resistant Staphylococcus aureus CCARM 3095 assessed as reduction in microbial growth incubated for 18 to 24 hrs by broth microdilution method. Particulars: time 18-24 hrs.
Test [8] has as its system Bacillus subtilis. The experiment in a line: Potency index, ratio of melittin MIC to test compound MIC for antibacterial activity against Bacillus subtilis KCTC 3068.

In brackets after ≈: the same amount, converted by molar mass. A value given as a limit tells only on which side of the number the result lay.

Take `Cc1cn([C@H]2C[C@H](NC(=O)CCCc3ccccc3)[C@@H](CNC(=O)CCCc3ccccc3)O2)c(=O)nc1N(CCCNC(=N)N)CCCNC(=N)N`: the MIC was greater than 64 µg/mL in test [1], 16 µg/mL (≈ 21.9 µM) in test [2], 8 µg/mL (≈ 11 µM) in test [3] and 8 µg/mL (≈ 11 µM) in test [4].
As for `Cc1cn([C@H]2C[C@H](NC(=O)Cc3cccc4ccccc34)[C@@H](CNC(=O)Cc3cccc4ccccc34)O2)c(=O)nc1NCCNC(=N)N`, the MIC in test [1] was greater than 64 µg/mL; in test [2], greater than 64 µg/mL; in test [3], 16 µg/mL (≈ 24.2 µM); in test [4] it was 32 µg/mL (≈ 48.4 µM).
`Cc1cn([C@H]2C[C@H](NC(=O)C3CCCCC3)[C@@H](CNC(=O)C3CCCCC3)O2)c(=O)nc1NCCNC(=N)N`: the MIC in test [1], in test [2], in test [3] and in test [4] was greater than 64 µg/mL throughout.
On to `Cc1cn([C@H]2C[C@H](NC(=O)CCCc3ccccc3)[C@@H](CNC(=O)CCCc3ccccc3)O2)c(=O)nc1NCCNC(=N)N`, for which the MIC in test [1] was greater than 64 µg/mL; in test [2], 32 µg/mL (≈ 51.9 µM); in test [3] it was 64 µg/mL (≈ 104 µM); in test [4] it was 64 µg/mL (≈ 104 µM).
With `O=C(O)c1cn(C2CC2)c2cc(N3CCNCC3)c(F)cc2c1=O` [CIPROFLOXACIN], the MIC in test [5], in test [6] and in test [7] was 512 µg/mL in each case.
With `O=C(N[C@H](CO)[C@H](O)c1ccc([N+](=O)[O-])cc1)C(Cl)Cl` [CHLORAMPHENICOL], the figures for the MIC in test [5], in test [6] and in test [7] were 512 µg/mL, 256 µg/mL and 512 µg/mL, respectively.
As to `CCCCCC(=O)NC[C@H]1O[C@@H](n2cc(C)c(N(CCCN)CCCN)nc2=O)C[C@@H]1NC(=O)CCCCC`, the MIC in test [1] is greater than 64 µg/mL; in test [2], 8 µg/mL (≈ 14.6 µM); in test [3], 64 µg/mL (≈ 116 µM); in test [4] it was greater than 64 µg/mL.
Regarding `CCCCCC(=O)NC[C@H]1O[C@@H](n2cc(C)c(N(CCCNC(=N)N)CCCNC(=N)N)nc2=O)C[C@@H]1NC(=O)CCCCC`, the MIC is greater than 64 µg/mL in test [1], 16 µg/mL (≈ 25.2 µM) in test [2], 32 µg/mL (≈ 50.5 µM) in test [3] and 32 µg/mL (≈ 50.5 µM) in test [4].
Regarding `Cc1cn([C@H]2C[C@H](NC(=O)CCCc3ccccc3)[C@@H](CNC(=O)CCCc3ccccc3)O2)c(=O)nc1N(CCCN)CCCN`, the MIC in test [1] was greater than 64 µg/mL; in test [2], 4 µg/mL (≈ 6.19 µM); in test [3] it was 16 µg/mL (≈ 24.8 µM); in test [4], 32 µg/mL (≈ 49.5 µM).
The corresponding values for `Cc1cn([C@H]2C[C@H](NC(=O)C3CCCCC3)[C@@H](CNC(=O)C3CCCCC3)O2)c(=O)nc1N(CCCN)CCCN` are greater than 64 µg/mL, 64 µg/mL (≈ 112 µM), 64 µg/mL (≈ 112 µM) and greater than 64 µg/mL.
The corresponding values for `CCCCCC(=O)NC[C@H]1O[C@@H](n2cc(C)c(NCCNC(=N)N)nc2=O)C[C@@H]1NC(=O)CCCCC` are greater than 64 µg/mL, 64 µg/mL (≈ 123 µM), greater than 64 µg/mL and greater than 64 µg/mL.
In the case of `Cc1cn([C@H]2C[C@H](NC(=O)Cc3cccc4ccccc34)[C@@H](CNC(=O)Cc3cccc4ccccc34)O2)c(=O)nc1N(CCCNC(=N)N)CCCNC(=N)N`, the MIC is 64 µg/mL (≈ 82.7 µM) in test [1], 16 µg/mL (≈ 20.7 µM) in test [2], 4 µg/mL (≈ 5.17 µM) in test [3] and 8 µg/mL (≈ 10.3 µM) in test [4]. In test [8], the Ratio is on record as 2.
`Cc1cn([C@H]2C[C@H](NC(=O)C3CCCCC3)[C@@H](CNC(=O)C3CCCCC3)O2)c(=O)nc1N(CCCNC(=N)N)CCCNC(=N)N`: the MIC in test [1] is greater than 64 µg/mL; in test [2], 16 µg/mL (≈ 24.3 µM); in test [3], 32 µg/mL (≈ 48.6 µM); in test [4], 32 µg/mL (≈ 48.6 µM).
For `Cc1onc(-c2ccccc2)c1C(=O)N[C@@H]1C(=O)N2[C@@H]1SC(C)(C)[C@@H]2C(=O)O` [OXACILLIN], the MIC in test [5] turned out to be 256 µg/mL; in test [6], 512 µg/mL; in test [7] it was 256 µg/mL.

The record behind these values is ChEMBL document CHEMBL4680234, “Antibacterial AZT derivative regulates metastasis of breast cancer cells” (Eur J Med Chem, 2020).
